{
  "source": "paper PMC2765124",
  "about": "(Drug and alcohol dependence, 2009)",
  "key": {"[1]": {"tested_on": "acetic acid-induced abdominal stretching in male ICR mice", "experiment": "acetic acid stretching test", "type": "in vivo, mouse", "conditions": "for effect on abdominal stretching given alone: 3 mg/kg i.p.; for blockade of the antinociceptive effects of Δ9-THC: antagonist 3 mg/kg i.p. 10 min before Δ9-THC 3 mg/kg s.c.; for antinociceptive effect given alone (abdominal stretching): 1 h before acetic acid; for blockade of the antinociceptive effects of Δ9-THC by THCV: THCV 50 mg/kg s.c. with Δ9-THC 3.0 mg/kg s.c."}, "[2]": {"tested_on": "locomotor activity of male ICR mice", "experiment": "spontaneous locomotor activity", "type": "in vivo, mouse", "conditions": "for % Time Immobile / Total Distance Traveled: 60 min before, 20 min, mean ± SEM"}, "CB1 receptor": {"target": "CB1 receptor (Rattus norvegicus, UniProt P20272)", "sequence (P20272 whole entry)": "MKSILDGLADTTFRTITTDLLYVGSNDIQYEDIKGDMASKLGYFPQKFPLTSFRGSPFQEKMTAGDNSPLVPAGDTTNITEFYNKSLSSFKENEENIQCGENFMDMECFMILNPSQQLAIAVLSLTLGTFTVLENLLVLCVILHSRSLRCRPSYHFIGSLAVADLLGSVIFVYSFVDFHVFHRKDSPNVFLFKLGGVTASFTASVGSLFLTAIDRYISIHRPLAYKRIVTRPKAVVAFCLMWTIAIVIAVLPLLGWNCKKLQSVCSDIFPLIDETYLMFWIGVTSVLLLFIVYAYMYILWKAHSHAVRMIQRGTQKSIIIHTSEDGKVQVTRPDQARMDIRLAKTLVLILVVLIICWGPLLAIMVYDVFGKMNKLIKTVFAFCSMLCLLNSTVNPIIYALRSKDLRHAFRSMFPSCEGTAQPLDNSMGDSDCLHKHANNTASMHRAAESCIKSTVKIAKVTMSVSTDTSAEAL", "experiment": "cannabinoid receptor binding, displacement of [3H]-CP-55,940 from whole brain"}},
  "note": "“Also recorded” adds a separate entry of the source.",
  "data": [
    {"molecule": "Cc1c(C(=O)NN2CCCCC2)nn(-c2ccc(Cl)cc2Cl)c1-c1ccc(Cl)cc1", "note": "[rimonabant]", "values": [
      {"measurement": "effect on abdominal stretching given alone", "setting": "[1]", "result": "did not significantly affect abdominal stretching behavior; also recorded: Neither"},
      {"measurement": "blockade of the antinociceptive effects of CBN", "setting": "[1]; antagonist 3 mg/kg i.p. 10 min before CBN 50 mg/kg s.c.", "result": "blocked by rimonabant; also recorded: significantly blocked the antinociceptive effects"},
      {"measurement": "blockade of the antinociceptive effects of Δ9-THC", "setting": "[1]", "result": "blocked the antinociceptive effects"},
      {"measurement": "blockade of the antinociceptive effects of Δ9-THC", "setting": "[1]; listed as Rimonabant", "result": "significantly blocked"}
    ]},
    {"molecule": "CCCCCc1cc(O)c2c(c1)OC(C)(CCC=C(C)C)C=C2", "note": "(centres unmarked) [CBC, cannabichromene]", "values": [
      {"measurement": "antinociceptive effect given alone (abdominal stretching)", "setting": "[1]; high doses, s.c.", "result": "did not produce antinociceptive effects"}
    ]},
    {"molecule": "CCCc1cc(O)c2c(c1)OC(C)(C)[C@@H]1CC=C(C)C[C@@H]21", "note": "[THCV, Δ^8-tetrahydrocannabivarin]", "values": [
      {"measurement": "antinociceptive effect given alone (abdominal stretching)", "setting": "[1]; 50 mg/kg s.c.", "result": "had no affect on the frequency of stretching behavior; also recorded: failed to elicit antinociceptive effects; also recorded: had no effects on its own"},
      {"measurement": "blockade of the antinociceptive effects of Δ9-THC by THCV", "setting": "[1]", "result": "blocked the antinociceptive effects of Δ^9-THC"},
      {"measurement": "blockade of the antinociceptive effects of Δ9-THC by THCV", "setting": "[1]; listed as THC-V", "result": "significantly antagonized the antinociceptive effects"}
    ]},
    {"molecule": "C=C(C)[C@@H]1CCC(C)=C[C@H]1c1c(O)cc(CCCCC)cc1O", "note": "[CBD, cannabidiol]", "values": [
      {"measurement": "antinociceptive effect given alone (abdominal stretching)", "setting": "[1]; high doses, s.c.", "result": "did not produce antinociceptive effects"}
    ]},
    {"molecule": "CCCCCc1cc(O)c2c(c1)OC(C)(C)[C@@H]1CCC(C)=C[C@@H]21", "note": "[Δ^9-THC, Δ^9-tetrahydrocannabinol]", "values": [
      {"measurement": "ED50", "setting": "[1]; Mus musculus, read-out: ED50, suppression of abdominal stretching", "result": 1.1, "unit": "mg/kg"},
      {"measurement": "minimal (required) dose that produced antinociception", "setting": "[1]; s.c.", "result": 1, "unit": "mg/kg"},
      {"measurement": "% Time Immobile", "setting": "[2]; 1.0 mg/kg s.c.", "result": "11.2 ± 2.2", "unit": "%"},
      {"measurement": "Total Distance Traveled", "setting": "[2]; 1.0 mg/kg s.c.", "result": "41.79 ± 2.63", "unit": "m"},
      {"measurement": "% Time Immobile", "setting": "[2]; 3.0 mg/kg s.c.", "result": "21.5 ± 5.0", "unit": "%"},
      {"measurement": "Total Distance Traveled", "setting": "[2]; 3.0 mg/kg s.c.", "result": "43.59 ± 4.70", "unit": "m"},
      {"measurement": "effect on locomotor activity", "setting": "[2]; 3 mg/kg s.c., 60 min pretreatment, compared to vehicle", "result": "did not significantly interfere with locomotor activity"},
      {"measurement": "% Time Immobile", "setting": "[2]; 10.0 mg/kg s.c.", "result": "37.6 ± 9.2", "unit": "%"},
      {"measurement": "Total Distance Traveled", "setting": "[2]; 10.0 mg/kg s.c.", "result": "45.86 ± 7.76", "unit": "m"},
      {"measurement": "% Time Immobile", "setting": "[2]; 50.0 mg/kg s.c.", "result": "49.0 ± 6.8", "unit": "%"},
      {"measurement": "Total Distance Traveled", "setting": "[2]; 50.0 mg/kg s.c.", "result": "35.34 ± 3.61", "unit": "m"},
      {"measurement": "effect on mobility", "setting": "[2]; doses less than 50 mg/kg s.c.", "result": "did not impair mobility"}
    ]},
    {"molecule": "SR144528", "values": [
      {"measurement": "effect on abdominal stretching given alone", "setting": "[1]", "result": "did not significantly affect abdominal stretching behavior; also recorded: Neither"}
    ]},
    {"molecule": "CCCCCc1cc(O)c2c(c1)OC(C)(C)c1ccc(C)cc1-2", "note": "[CBN, cannabinol]", "values": [
      {"measurement": "affinity at the CB1 receptor, fold lower than the affinity of Δ9-THC", "setting": "CB1 receptor", "result": "2–3 fold"},
      {"measurement": "antinociceptive effect given alone (abdominal stretching)", "setting": "[1]; 20 mg/kg s.c.", "result": "not at 20 mg/kg"},
      {"measurement": "antinociceptive effect given alone (abdominal stretching)", "setting": "[1]; 50 mg/kg s.c.", "result": "significant antinociceptive effects; also recorded: significantly suppressed the stretching response"},
      {"measurement": "minimal (required) dose that produced antinociception", "setting": "[1]; s.c.", "result": 50, "unit": "mg/kg"},
      {"measurement": "effect on locomotor activity", "setting": "[2]; 50 mg/kg s.c., 60 min before recording", "result": "failed to inhibit locomotor activity; also recorded: did not affect mobility"},
      {"measurement": "% Time Immobile", "setting": "[2]; 50.0 mg/kg s.c.", "result": "17.6 ± 2.9", "unit": "%"},
      {"measurement": "Total Distance Traveled", "setting": "[2]; 50.0 mg/kg s.c.", "result": "39.02 ± 7.75", "unit": "m"}
    ]}
  ]
}
